Each structure is given as a SMILES string. pEC50: −log10 of the molar value. Where a name gives a salt, the structure may show the parent alone.

The target of this assay is T1, hNPRA (Homo sapiens, UniProt P16066).
T1 construct: expressed in transfected cells
T1 sequence (P16066 33-1061): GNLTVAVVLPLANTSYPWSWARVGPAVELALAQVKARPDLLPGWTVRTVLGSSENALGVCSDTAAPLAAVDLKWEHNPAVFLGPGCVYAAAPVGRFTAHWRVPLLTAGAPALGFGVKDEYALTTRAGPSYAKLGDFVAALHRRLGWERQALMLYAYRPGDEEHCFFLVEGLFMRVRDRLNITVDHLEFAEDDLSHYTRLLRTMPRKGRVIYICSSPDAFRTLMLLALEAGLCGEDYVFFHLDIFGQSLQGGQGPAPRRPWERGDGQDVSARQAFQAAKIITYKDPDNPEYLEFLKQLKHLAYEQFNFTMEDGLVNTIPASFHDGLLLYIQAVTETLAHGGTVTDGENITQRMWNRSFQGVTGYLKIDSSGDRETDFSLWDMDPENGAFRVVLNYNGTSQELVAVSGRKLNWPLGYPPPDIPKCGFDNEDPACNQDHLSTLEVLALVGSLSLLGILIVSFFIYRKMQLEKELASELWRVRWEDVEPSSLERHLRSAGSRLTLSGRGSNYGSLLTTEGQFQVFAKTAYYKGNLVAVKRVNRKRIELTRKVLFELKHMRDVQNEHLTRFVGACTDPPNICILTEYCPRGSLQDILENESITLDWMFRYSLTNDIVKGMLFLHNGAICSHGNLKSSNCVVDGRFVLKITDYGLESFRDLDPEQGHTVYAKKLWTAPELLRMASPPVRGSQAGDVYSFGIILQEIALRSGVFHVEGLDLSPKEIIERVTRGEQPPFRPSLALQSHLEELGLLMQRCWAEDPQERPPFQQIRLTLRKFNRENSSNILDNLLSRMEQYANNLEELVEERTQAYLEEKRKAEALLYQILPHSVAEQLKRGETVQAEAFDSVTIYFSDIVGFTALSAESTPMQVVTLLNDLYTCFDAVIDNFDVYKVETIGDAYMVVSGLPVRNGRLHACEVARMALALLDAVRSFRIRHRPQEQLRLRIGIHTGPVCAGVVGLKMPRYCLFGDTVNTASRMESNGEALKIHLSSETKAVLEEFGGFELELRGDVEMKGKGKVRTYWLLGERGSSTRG
The experiment in a line: NPRA Functional Cell Assay (cGMP HTRF, NPRA HEK JumpIn stable cells). As to conditions: cGMP production, 1 hour at 37° C., 10-point dose response. The format is cell-based. The method in brief: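 cGMP HTRF read-out after 1 hour compound treatment at 37° C. of human NPRA-expressing HEK JumpIn cells, 1500 cells/well, in buffer with phosphodiesterase inhibitors IBMX and RO20 (100 uM each). Signal converted to [cGMP] by calibration curve; EC50s fitted by 4-parameter logistic; 50 nM h-ANP as positive response.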
Molecule `COCCN1CCN(CC[C@@H](NC(=O)c2cc3cc4c(nc3s2)CC[C@H](C(C)(C)C)C4)c2ccc(-c3ccc(=O)[nH]c3)cc2)CC1` (racemic) [Example 66, rac-(6S)-6-tert-butyl-N-[rac-(1R)-3-[4-(2-methoxyethyl)piperazin-1-yl]-1-[4-(6-oxo-1H-pyridin-3-yl)phenyl]propyl]-5,6,7,8-tetrahydrothieno[2,3-b]quinoline-2-carboxamide] gave a pEC50 of 5.88.

Take `CC(C)(C)[C@H]1CCc2nc3sc(C(=O)N[C@H](CCNC4CCNC4=O)c4ccc(-c5ccc(=O)[nH]c5)cc4)cc3cc2C1` (mixture of isomers) [Example 67, (2-oxopyrrolidin-3-yl)-[rac-(3R)-3-[4-(6-oxo-1H-pyridin-3-yl)phenyl]-3-[rac-(6S)-6-tert-butyl-5,6,7,8-tetrahydrothieno[2,3-b]quinoline-2-carbonyl]amino]propyl] ammonium;formate]: the pEC50 was 5.75.

Molecule `CC(C)(C)[C@H]1CCc2nc3sc(C(=O)N[C@H](CCN4CCC(C#N)CC4)c4ccc(-c5ccc(=O)[nH]c5)cc4)cc3cc2C1` (racemic) [Example 68, rac-(6S)-6-tert-butyl-N-[rac-(1R)-3-(4-cyanopiperidin-1-ium-1-yl)-1-[4-(6-oxo-1H-pyridin-3-yl)phenyl]propyl]-5,6,7,8-tetrahydrothieno[2,3-b]quinoline-2-carboxamide;formate] had a pEC50 of 5.74. The pEC50 values of the last two molecules are within 0.2 log units of each other.

As to `CC(C)(C)[C@H]1CCc2nc3sc(C(=O)N[C@H](CCN[C@H]4COC[C@@H]4O)c4ccc(-c5ccc(=O)[nH]c5)cc4)cc3cc2C1` (racemic) [Example 69, [rac-(3S,4R)-4-hydroxytetrahydrofuran-3-yl]-[rac-(3R)-3-[4-(6-oxo-1H-pyridin-3-yl)phenyl]-3-[[rac-(6S)-6-tert-butyl-5,6,7,8-tetrahydrothieno[2,3-b]quinoline-2-carbonyl]amino]propyl] ammonium;formate], the pEC50 is 5.74.

For the molecule `CN(C)[C@H]1CN(CC[C@@H](NC(=O)c2cc3cc4c(nc3s2)CC[C@H](C(C)(C)C)C4)c2ccc(-c3ccc(=O)[nH]c3)cc2)C[C@@H]1O` (racemic) [Example 70, rac-(6S)-6-tert-butyl-N-[rac-(1R)-1-[4-(6-oxo-1H-pyridin-3-yl)phenyl]-3-[rac-(3S,4S)-3-(dimethylamino)-4-hydroxy-pyrrolidin-1-ium-1-yl]propyl]-5,6,7,8-tetrahydrothieno[2,3-b]quinoline-2-carboxamide;formate], the pEC50 was 5.71. The pEC50 values of the last two molecules are within 0.2 log units of each other.

The molecule `CC(C)(C)[C@H]1CCc2nc3sc(C(=O)N[C@H](CCN4C[C@H](O)C[C@H]4CO)c4ccc(-c5ccc(=O)[nH]c5)cc4)cc3cc2C1` (racemic) [Example 71, rac-(6S)-6-tert-butyl-N-[rac-(1R)-1-[4-(6-oxo-1H-pyridin-3-yl)phenyl]-3-[rac-(2S,4R)-4-hydroxy-2-(hydroxymethyl)pyrrolidin-1-ium-1-yl]propyl]-5,6,7,8-tetrahydrothieno[2,3-b]quinoline-2-carboxamide;formate] gave a pEC50 of 5.70.

`CC(C)(C)[C@H]1CCc2nc3sc(C(=O)N[C@H](CCN4CCOCC4)c4ccc(C(=O)N[C@H]5CNC[C@@H]5O)cc4)cc3cc2C1` (racemic) [Example 72] had a pEC50 of 6.01.

Take `CC(C)(C)[C@H]1CCc2nc3sc(C(=O)N[C@H](CCN4CCC(O)CC4)c4ccc(-c5ccc(=O)[nH]c5)cc4)nc3cc2C1` (racemic) [Example 73, rac-(7S)-7-tert-butyl-N-[rac-(1R)-3-(4-hydroxy-1-piperidyl)-1-[4-(6-oxo-1H-pyridin-3-yl)phenyl]propyl]-5,6,7,8-tetrahydrothiazolo[5,4-b]quinoline-2-carboxamide]: the pEC50 was 6.57.

`CC(C)(C)[C@H]1CCc2nc3sc(C(=O)N[C@H](CCN4CCC(CO)C4)c4ccc(-c5ccc(=O)[nH]c5)cc4)nc3cc2C1` (mixture of isomers) [Example 74, rac-(7S)-7-tert-butyl-N-[rac-(1R)-3-[3-(hydroxymethyl)pyrrolidin-1-yl]-1-[4-(6-oxo-1H-pyridin-3-yl)phenyl]propyl]-5,6,7,8-tetrahydrothiazolo[5,4-b]quinoline-2-carboxamide] showed a pEC50 of 6.48.

The molecule `CC(C)(C)[C@H]1CCc2nc3sc(C(=O)N[C@H](CCNC4CCOCC4)c4ccc(-c5ccc(=O)[nH]c5)cc4)nc3cc2C1` (racemic) [Example 75, rac-(7S)-7-tert-butyl-N-[rac-(1R)-1-[4-(6-oxo-1H-pyridin-3-yl)phenyl]-3-(tetrahydropyran-4-ylamino)propyl]-5,6,7,8-tetrahydrothiazolo[5,4-b]quinoline-2-carboxamide] gave a pEC50 of 6.20. Against the preceding molecule, the pEC50 is 0.28 log units lower.

The molecule `CN(C)CC[C@@H](NC(=O)c1nc2cc3c(nc2s1)CC[C@H](C(C)(C)C)C3)c1ccc(-c2ccc(=O)[nH]c2)cc1` (racemic) [Example 76, rac-(7S)-7-tert-butyl-N-[rac-(1R)-3-(dimethylamino)-1-[4-(6-oxo-1H-pyridin-3-yl)phenyl]propyl]-5,6,7,8-tetrahydrothiazolo[5,4-b]quinoline-2-carboxamide] showed a pEC50 of 6.18.

In turn, `CC1(C)CN(CC[C@@H](NC(=O)c2nc3cc4c(nc3s2)CC[C@H](C(C)(C)C)C4)c2ccc(-c3ccc(=O)[nH]c3)cc2)C1` (racemic) [Example 77, rac-(7S)-7-tert-butyl-N-[rac-(1R)-3-(3,3-dimethylazetidin-1-yl)-1-[4-(6-oxo-1H-pyridin-3-yl)phenyl]propyl]-5,6,7,8-tetrahydrothiazolo[5,4-b]quinoline-2-carboxamide] gave a pEC50 of 6.17.

The molecule `CC(C)(C)[C@H]1CCc2nc3sc(C(=O)N[C@H](CCN4CCC(O)C4)c4ccc(-c5ccc(=O)[nH]c5)cc4)nc3cc2C1` (mixture of isomers) [Example 78, rac-(7S)-7-tert-butyl-N-[rac-(1R)-3-(3-hydroxypyrrolidin-1-yl)-1-[4-(6-oxo-1H-pyridin-3-yl)phenyl]propyl]-5,6,7,8-tetrahydrothiazolo[5,4-b]quinoline-2-carboxamide] had a pEC50 of 6.16.

On to `CC(C)(C)[C@H]1CCc2nc3sc(C(=O)N[C@H](CCN4CCC(O)CC4)c4ccc(-c5ccc(=O)[nH]c5)cc4)nc3cc2C1` (racemic) [Example 79, rac-(7S)-7-tert-butyl-N-[rac-(1R)-3-(4-hydroxypiperidin-1-ium-1-yl)-1-[4-(6-oxo-1H-pyridin-3-yl)phenyl]propyl]-5,6,7,8-tetrahydrothiazolo[5,4-b]quinoline-2-carboxamide; formate], for which the pEC50 was 6.57.

Molecule `CC(C)(C)[C@H]1CCc2nc3sc(C(=O)N[C@H](CCN4CCC(O)CC4)c4ccc(-c5cn[nH]c5)cc4)nc3cc2C1` (racemic) [Example 80, rac-(7S)-7-tert-butyl-N-[rac-(1R)-3-(4-hydroxypiperidin-1-ium-1-yl)-1-[4-(1H-pyrazol-4-yl)phenyl]propyl]-5,6,7,8-tetrahydrothiazolo[5,4-b]quinoline-2-carboxamide; formate] showed a pEC50 of 6.12.

`Cn1nccc1-c1ccc([C@@H](CCN2CCC(O)CC2)NC(=O)c2nc3cc4c(nc3s2)CC[C@H](C(C)(C)C)C4)cc1` (racemic) [Example 81, rac-(7S)-7-tert-butyl-N-[rac-(1R)-3-(4-hydroxypiperidin-1-ium-1-yl)-1-[4-(2-methylpyrazol-3-yl)phenyl]propyl]-5,6,7,8-tetrahydrothiazolo[5,4-b]quinoline-2-carboxamide; formate]: the pEC50 is 6.04.

In the case of `CC(C)(C)[C@H]1CCc2nc3sc(C(=O)N[C@H](CCN4CCC(O)CC4)c4ccc(-n5ccnc5)cc4)nc3cc2C1` (racemic) [Example 83, rac-(7S)-7-tert-butyl-N-[rac-(1R)-3-(4-hydroxy-piperidin-1-ium-1-yl)-1-(4-imidazol-1-ylphenyl)propyl]-5,6,7,8-tetrahydro-thiazolo[5,4-b] quinoline-2-carboxamide; 2,2,2-trifluoroacetate], the pEC50 was 6.17.

The molecule `CC(C)(C)[C@H]1CCc2nc3sc(C(=O)N[C@H](CCN4CCC(O)CC4)c4ccc(N5CCOC5=O)cc4)nc3cc2C1` (racemic) [Example 85] had a pEC50 of 5.99.

For `CN(C)CC[C@@H](NC(=O)c1nc2cc3c(nc2s1)CC[C@H](C(C)(C)C)C3)c1cccc(C(=O)NC2CN(C)C2)c1` (racemic) [Example 86, rac-(7S)-7-tert-butyl-N-[rac-(1R)-3-(dimethyl-amino)-1-[3-[(1-methylazetidin-3-yl)carbamoyl]phenyl]propyl]-5,6,7,8-tetrahydrothiazolo[5,4-b] quinoline-2-carboxamide], the pEC50 was 6.74.

The pEC50 is the negative decadic logarithm of the EC50, by convention in mol/L. The low end stands for a large EC50, the high end for a small EC50.

Source of the values: US12440496B2, “Natriuretic peptide receptor a agonists useful for the treatment of cardiometabolic diseases, kidney disease and diabetes” (Merck Sharp & Dohme LLC, priority 2019, dated 2025).
